What was measured:
[1] = tested on: K-562 (chronic myelogenous leukemia); assay: MTT anti-proliferative assay, K-562; format: cell-based; settings: Homo sapiens, K562, 48 h, 50% growth inhibition
Procedure: (§1) Each in vitro experiment was performed at least in triplicate, and the standard deviation of absorbance was less than 10% of the mean. For the in vitro assays, a stock solution (1% DMSO in the appropriate buffer with the tested compound diluted under sonication) was prepared from which several dilutions were made with the appropriate buffer.
(§2) Human cell lines were obtained from the Institute of Cytology, Russian Academy of Sciences. […] Cellular sensitivities to clofarabine and its lipid derivatives were measured with the MTT assay. Cells were plated in triplicate in 96-well plates (10^5 cells/well for suspended cell cultures and 5 × 10^3 cells/well for monolayer cultures); on the same day (suspended cell cultures) or on the following day (monolayer cultures), compounds were added at the appropriate dilutions. Plates were incubated under standard conditions for 48 h. Thereafter, 10 μL of MTT (Sigma) in phosphate-buffered saline (5 mg/mL) was added. The plates were incubated for an additional 4 h, and 150 μL of dimethyl sulfoxide (DMSO) was added to dissolve the formazan crystals. The optical density was read on a HALO MPR-95 Microplate Reader (Dynamica Scientific Ltd., Australia) at 570 nm. The antiproliferative effects were determined as degrees of inhibition of tumor cells (%).

[2] = tested on: HL-60 (promyelocytic leukemia); assay: MTT anti-proliferative assay, HL-60; format: cell-based, human; settings: Homo sapiens, HL-60, 48 h, 50% growth inhibition
Procedure: as §1, §2

[3] = tested on: MCF-7 (breast adenocarcinoma); assay: MTT anti-proliferative assay, MCF-7; format: cell-based; settings: Homo sapiens, MCF7, 48 h, 50% growth inhibition
Procedure: as §1, §2

A549 (lung carcinoma) = assay: MTT anti-proliferative assay, A-549; format: cell-based; settings: Homo sapiens, 48 h, 50% growth inhibition
Procedure: as §1, §2

[4] = tested on: OKP-GS (carcinoma of the kidney); assay: MTT anti-proliferative assay, OKP-GS; format: cell-based; settings: Homo sapiens, 48 h, 50% growth inhibition
Procedure: as §1, §2

[5] = tested on: RPMI 1788 (B lymphocyte, human normal cells); assay: MTT assay on normal cells RPMI 1788; format: cell-based; settings: MTT 48 h
Procedure: as §1
Human cell lines were obtained from the Institute of Cytology, Russian Academy of Sciences. The cell lines studied were maintained in RPMI 1640 medium (AppliChem, Darmstadt, Germany) supplemented with 20% (HL-60, RPMI 1788) fetal calf serum (HyClone, Cramlington, UK), in DMEM (A 549) and Eagle’s MEM (AppliChem) (MCF7, HeLa) with 10% fetal calf serum (HyClone). Cells were cultivated at 37 °C in a humidified atmosphere of 5% CO2. Cellular sensitivities to clofarabine and its lipid derivatives were measured with the MTT assay. Cells were plated in triplicate in 96-well plates (10^5 cells/well for suspended cell cultures and 5 × 10^3 cells/well for monolayer cultures); on the same day (suspended cell cultures) or on the following day (monolayer cultures), compounds were added at the appropriate dilutions. Plates were incubated under standard conditions for 48 h. Thereafter, 10 μL of MTT (Sigma) in phosphate-buffered saline (5 mg/mL) was added. The plates were incubated for an additional 4 h, and 150 μL of dimethyl sulfoxide (DMSO) was added to dissolve the formazan crystals. The optical density was read on a HALO MPR-95 Microplate Reader (Dynamica Scientific Ltd., Australia) at 570 nm. The antiproliferative effects were determined as degrees of inhibition of tumor cells (%).

EGFR = molecular target: T1, EGFR (Homo sapiens, UniProt P00533); assay: ADP-Glo kinase inhibitory assay, EGFR; format: biochemical; settings: read-out: % Inhibition at 10 nM, EGFR
T1 construct: purchased Promega
Procedure: (§3) We investigated the kinase selectivity of targeted compounds against eight receptor tyrosine kinases including EGFR (epidermal growth factor receptor), HER-2 and HER4 (human epidermal growth factor receptor), IGF1R (insulin like growth factor 1 receptor), InsR (gene insulin receptor), KDR (kinase insert domain receptor), and PDGFRa and PDGFRb (platelet-derived growth factor receptors). The assay was performed using the Kinase-Glo Plus luminescence kinase assay kit (TK-1+ADP-Glo™, Promega, San Diego, CA, USA). It measures kinase activity by quantitating the amount of ATP remaining in solution following a kinase reaction.
(§4) The assay was performed using a Kinase Selectivity Profiling System (TK-1+ADP-Glo™ Assay and TK-2+ADP-Glo™ Assay, Promega), where the kinase activity was measured by quantifying the amount of ADP produced during a kinase reaction. The assay is performed in two steps; firstly, after the kinase reaction, an equal volume of ADP-Glo™ Reagent is added to terminate the kinase reaction and deplete the remaining ATP. Secondly, the Kinase Detection Reagent is added to simultaneously convert ADP to ATP and allow the newly synthesized ATP to be measured using a luciferase/luciferin reaction. The luminescent signal generated is proportional to the ADP concentration produced and is correlated with kinase activity. Our compounds were diluted with kinase buffer (5% DMSO), and 1 μL of the dilution was added to a 5-μL reaction so that the final concentration of DMSO was 1% in all of reactions. All of the enzymatic reactions were conducted at 23 °C for 60 min. The 5-μL reaction mixture contained 1µL of the compound solution, 2µL of the enzyme solution, and 2 µL of kinase substrate. After the enzymatic reaction, 5 µL of ADP-Glo™ Reagent (Promega, USA) was added to each reaction, and the plate was incubated for 40 min at 23 °C. Then, 10 µL of Kinase Detection Reagent (Promega, USA) was added to each reaction, and the plate was incubated for 30 min at 23 °C. Luminescence signal was measured using an Infinite M 200 plate reader (Tecan, Switzerland).
(§5) Kinase activity assays were performed in duplicate at each concentration. The luminescence data were analyzed using the computer software, Magellan™. The difference between luminescence intensities in the absence of Kinase (Lut) and in the presence of Kinase (Luc) was defined as 100% activity (Lut − Luc).

HER-2 = molecular target: T2, HER-2 (Homo sapiens, UniProt P04626); assay: ADP-Glo kinase inhibitory assay, HER-2; format: biochemical; settings: read-out: % Inhibition at 10 nM, HER-2
T2 construct: purchased Promega
Procedure: as §3, §4, §5

HER-4 = molecular target: T3, HER-4 (Homo sapiens, UniProt Q15303); assay: ADP-Glo kinase inhibitory assay, HER-4; format: biochemical; settings: for inhibition at 0.01 µM: read-out: % Inhibition at 10 nM, HER-4
T3 construct: purchased Promega
Procedure: as §3, §4, §5

IGF1R = molecular target: T4, IGF1R (Homo sapiens, UniProt P08069); assay: ADP-Glo kinase inhibitory assay, IGF1R; format: biochemical; settings: read-out: % Inhibition at 10 nM, IGF1R
T4 construct: purchased Promega
Procedure: as §3, §4, §5

InsR = molecular target: T5, InsR (Homo sapiens, UniProt P06213); assay: ADP-Glo kinase inhibitory assay, InsR; format: biochemical; settings: for selectivity for the gene insulin receptor, in words: 10 nM, panel of eight receptor tyrosine kinases; for inhibition at 0.01 µM: read-out: % Inhibition at 10 nM, InsR
T5 construct: purchased Promega
Procedure: as §3, §4, §5

KDR (VEGFR2) = molecular target: T6, KDR (VEGFR2) (Homo sapiens, UniProt P35968); assay: ADP-Glo kinase inhibitory assay, KDR; format: biochemical; settings: 10 nM
T6 construct: purchased Promega
Procedure: as §3
Vascular endothelial growth factor receptor 2 (VEGFR2), also called kinase insert domain receptor (KDR), is a tyrosine kinase receptor for VEGFs that plays a central role in tumor angiogenesis; therefore, the inhibition of VEGFR2 is a promising therapeutic strategy for inhibiting angiogenesis and tumor growth.
as §4, §5

PDGFRa = molecular target: T7, PDGFRa (Homo sapiens, UniProt P16234); assay: ADP-Glo kinase inhibitory assay, PDGFRa; format: biochemical; settings: read-out: % Inhibition at 10 nM, PDGFRa
T7 construct: purchased Promega
Procedure: as §3, §4, §5

PDGFRb = molecular target: T8, PDGFRb (Homo sapiens, UniProt P09619); assay: ADP-Glo kinase inhibitory assay, PDGFRb; format: biochemical; settings: read-out: % Inhibition at 10 nM, PDGFRb
T8 construct: purchased Promega
Procedure: as §3, §4, §5

T6 sequence (P35968 20-1356): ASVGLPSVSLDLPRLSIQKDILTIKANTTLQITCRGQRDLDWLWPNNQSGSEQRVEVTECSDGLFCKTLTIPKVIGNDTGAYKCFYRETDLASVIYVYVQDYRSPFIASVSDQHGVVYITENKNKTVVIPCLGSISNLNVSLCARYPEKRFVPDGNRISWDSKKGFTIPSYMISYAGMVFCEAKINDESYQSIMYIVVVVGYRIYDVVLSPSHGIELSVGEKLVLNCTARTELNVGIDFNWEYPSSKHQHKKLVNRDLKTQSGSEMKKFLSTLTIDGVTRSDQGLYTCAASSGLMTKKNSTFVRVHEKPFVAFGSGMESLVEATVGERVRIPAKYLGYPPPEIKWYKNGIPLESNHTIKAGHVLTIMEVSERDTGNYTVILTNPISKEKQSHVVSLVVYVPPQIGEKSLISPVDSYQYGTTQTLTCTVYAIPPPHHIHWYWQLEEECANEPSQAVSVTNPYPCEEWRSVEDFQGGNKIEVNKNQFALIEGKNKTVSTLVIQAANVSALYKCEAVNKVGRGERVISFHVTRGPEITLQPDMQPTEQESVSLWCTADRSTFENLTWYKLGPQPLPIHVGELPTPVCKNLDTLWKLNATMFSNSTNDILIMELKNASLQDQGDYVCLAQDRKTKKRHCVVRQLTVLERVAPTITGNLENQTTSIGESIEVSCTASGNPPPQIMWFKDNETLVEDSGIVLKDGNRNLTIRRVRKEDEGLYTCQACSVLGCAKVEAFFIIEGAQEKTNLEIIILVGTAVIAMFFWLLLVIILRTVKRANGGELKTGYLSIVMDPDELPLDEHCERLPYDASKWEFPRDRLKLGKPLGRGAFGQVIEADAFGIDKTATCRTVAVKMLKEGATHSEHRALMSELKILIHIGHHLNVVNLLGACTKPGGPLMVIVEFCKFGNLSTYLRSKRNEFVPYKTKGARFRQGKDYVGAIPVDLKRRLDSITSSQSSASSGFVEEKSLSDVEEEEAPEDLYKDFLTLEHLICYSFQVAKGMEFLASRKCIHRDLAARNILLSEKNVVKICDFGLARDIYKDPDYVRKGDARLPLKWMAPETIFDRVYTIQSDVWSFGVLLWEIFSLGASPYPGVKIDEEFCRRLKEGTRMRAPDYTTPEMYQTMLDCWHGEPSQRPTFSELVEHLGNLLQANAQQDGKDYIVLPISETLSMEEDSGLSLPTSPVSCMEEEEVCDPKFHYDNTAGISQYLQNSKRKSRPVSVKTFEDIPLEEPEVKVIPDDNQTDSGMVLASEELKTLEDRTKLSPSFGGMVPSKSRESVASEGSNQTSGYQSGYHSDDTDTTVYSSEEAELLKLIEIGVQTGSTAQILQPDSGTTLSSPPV
T4 sequence (P08069 31-1367): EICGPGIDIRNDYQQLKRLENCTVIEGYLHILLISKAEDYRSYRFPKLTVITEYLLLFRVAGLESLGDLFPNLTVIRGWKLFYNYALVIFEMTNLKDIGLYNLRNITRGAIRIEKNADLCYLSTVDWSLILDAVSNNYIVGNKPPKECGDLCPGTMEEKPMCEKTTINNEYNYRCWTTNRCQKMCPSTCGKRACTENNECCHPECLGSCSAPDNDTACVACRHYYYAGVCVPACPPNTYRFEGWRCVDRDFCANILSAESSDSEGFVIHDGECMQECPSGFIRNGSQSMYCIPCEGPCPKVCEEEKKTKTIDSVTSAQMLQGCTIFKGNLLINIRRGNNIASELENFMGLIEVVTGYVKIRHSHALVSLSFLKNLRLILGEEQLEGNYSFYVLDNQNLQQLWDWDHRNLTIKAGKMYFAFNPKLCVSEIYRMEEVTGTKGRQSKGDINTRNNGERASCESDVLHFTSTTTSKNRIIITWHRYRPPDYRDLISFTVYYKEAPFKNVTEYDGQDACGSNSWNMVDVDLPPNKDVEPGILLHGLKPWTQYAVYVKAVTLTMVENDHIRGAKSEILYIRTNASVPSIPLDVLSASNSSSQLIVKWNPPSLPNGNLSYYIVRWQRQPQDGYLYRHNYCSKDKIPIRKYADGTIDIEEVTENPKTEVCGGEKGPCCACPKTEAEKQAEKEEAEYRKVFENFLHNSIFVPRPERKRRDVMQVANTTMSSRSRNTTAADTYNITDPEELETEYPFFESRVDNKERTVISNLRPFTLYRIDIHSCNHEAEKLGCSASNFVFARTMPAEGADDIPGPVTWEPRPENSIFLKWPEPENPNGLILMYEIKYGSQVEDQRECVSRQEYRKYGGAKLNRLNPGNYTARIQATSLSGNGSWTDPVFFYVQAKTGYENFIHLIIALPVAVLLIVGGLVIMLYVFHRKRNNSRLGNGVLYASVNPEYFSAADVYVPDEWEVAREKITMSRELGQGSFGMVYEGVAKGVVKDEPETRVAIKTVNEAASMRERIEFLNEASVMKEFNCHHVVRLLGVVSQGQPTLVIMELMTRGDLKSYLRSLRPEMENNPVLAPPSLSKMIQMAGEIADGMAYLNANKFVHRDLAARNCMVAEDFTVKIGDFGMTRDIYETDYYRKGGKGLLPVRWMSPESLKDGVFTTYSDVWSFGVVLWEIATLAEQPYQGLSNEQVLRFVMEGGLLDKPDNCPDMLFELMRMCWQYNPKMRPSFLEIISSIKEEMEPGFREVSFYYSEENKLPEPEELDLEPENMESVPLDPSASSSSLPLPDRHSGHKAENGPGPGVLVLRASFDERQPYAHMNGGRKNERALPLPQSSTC
T8 sequence (P09619 33-1106): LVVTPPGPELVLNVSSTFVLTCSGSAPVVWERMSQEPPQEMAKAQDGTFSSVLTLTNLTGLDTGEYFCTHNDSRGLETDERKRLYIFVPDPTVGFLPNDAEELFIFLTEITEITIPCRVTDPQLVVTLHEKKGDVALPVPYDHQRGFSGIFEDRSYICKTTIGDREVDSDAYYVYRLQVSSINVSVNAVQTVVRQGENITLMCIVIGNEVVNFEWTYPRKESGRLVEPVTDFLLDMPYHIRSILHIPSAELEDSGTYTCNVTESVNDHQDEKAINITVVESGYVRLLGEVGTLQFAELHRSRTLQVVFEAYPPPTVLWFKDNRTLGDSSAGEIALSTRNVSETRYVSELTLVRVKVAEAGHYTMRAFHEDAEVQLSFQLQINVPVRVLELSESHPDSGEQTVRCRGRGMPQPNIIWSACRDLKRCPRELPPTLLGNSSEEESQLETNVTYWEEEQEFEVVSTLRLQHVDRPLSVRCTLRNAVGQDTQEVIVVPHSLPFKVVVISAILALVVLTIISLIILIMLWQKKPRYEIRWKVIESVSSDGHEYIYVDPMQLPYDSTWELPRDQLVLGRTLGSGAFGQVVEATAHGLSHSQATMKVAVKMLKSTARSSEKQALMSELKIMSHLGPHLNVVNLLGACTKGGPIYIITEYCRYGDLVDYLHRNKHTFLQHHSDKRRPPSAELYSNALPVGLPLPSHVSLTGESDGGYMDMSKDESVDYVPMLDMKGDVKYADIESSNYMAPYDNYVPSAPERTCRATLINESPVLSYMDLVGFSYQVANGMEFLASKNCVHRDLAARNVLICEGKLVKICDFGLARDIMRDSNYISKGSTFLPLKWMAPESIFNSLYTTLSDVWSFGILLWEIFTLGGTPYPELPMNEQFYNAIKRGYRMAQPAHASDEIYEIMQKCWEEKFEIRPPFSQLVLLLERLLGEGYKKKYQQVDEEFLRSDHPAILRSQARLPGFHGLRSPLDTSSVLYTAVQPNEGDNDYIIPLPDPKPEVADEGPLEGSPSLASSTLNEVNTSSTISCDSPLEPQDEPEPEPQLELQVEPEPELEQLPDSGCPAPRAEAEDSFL
T1 sequence (P00533 25-1210): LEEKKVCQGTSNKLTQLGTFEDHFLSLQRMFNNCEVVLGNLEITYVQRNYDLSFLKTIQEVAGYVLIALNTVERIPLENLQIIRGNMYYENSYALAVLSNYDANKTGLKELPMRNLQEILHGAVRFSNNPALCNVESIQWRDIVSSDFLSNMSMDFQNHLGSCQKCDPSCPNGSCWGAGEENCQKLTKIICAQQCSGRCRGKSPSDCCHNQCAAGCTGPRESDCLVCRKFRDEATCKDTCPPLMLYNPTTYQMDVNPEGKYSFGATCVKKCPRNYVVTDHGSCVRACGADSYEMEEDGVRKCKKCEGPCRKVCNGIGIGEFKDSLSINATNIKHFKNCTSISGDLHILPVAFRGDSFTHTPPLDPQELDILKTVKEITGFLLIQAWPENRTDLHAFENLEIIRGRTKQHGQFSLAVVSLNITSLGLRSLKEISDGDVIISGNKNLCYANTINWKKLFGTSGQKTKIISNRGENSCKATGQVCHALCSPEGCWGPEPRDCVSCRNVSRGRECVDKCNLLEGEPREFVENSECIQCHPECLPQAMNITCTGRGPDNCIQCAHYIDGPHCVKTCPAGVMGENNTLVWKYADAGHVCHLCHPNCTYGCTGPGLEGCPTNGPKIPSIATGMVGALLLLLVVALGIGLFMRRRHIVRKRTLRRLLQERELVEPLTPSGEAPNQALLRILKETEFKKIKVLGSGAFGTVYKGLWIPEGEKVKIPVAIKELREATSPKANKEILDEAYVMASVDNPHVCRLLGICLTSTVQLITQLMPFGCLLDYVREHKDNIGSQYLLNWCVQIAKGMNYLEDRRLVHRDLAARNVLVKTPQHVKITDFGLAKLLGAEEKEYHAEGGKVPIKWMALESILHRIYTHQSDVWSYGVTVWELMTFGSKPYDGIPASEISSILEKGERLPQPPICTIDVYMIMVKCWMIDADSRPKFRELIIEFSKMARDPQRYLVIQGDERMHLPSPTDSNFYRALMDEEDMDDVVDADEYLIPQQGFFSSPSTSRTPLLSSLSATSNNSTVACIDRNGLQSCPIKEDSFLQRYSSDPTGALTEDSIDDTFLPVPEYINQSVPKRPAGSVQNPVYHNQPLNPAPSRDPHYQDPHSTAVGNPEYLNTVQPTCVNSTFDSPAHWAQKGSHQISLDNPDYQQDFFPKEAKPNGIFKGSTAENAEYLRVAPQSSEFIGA

| Compound | IC50 [1] [µM] | IC50 [2] [µM] | IC50 [3] [µM] | IC50 (A549 (lung carcinoma)) [µM] | IC50 [4] [µM] | melting point [°C] | inhibition at 100 µM [5] [%] | inhibition at 0.01 µM (EGFR) [%] | inhibition at 0.01 µM (HER-2) [%] | inhibition at 0.01 µM (HER-4) [%] | inhibition at 0.01 µM (IGF1R) [%] | selectivity for the gene insulin receptor, in words (InsR) | inhibition at 0.01 µM (InsR) [%] | inhibition at 0.01 µM (KDR (VEGFR2)) [%] | inhibition at 0.01 µM (PDGFRa) [%] | inhibition at 0.01 µM (PDGFRb) [%] | inhibitory activity in relation to HER-4, in words (HER-4; 10 nM, compared with imatinib) |
| --- | --- | --- | --- | --- | --- | --- | --- | --- | --- | --- | --- | --- | --- | --- | --- | --- | --- |
| Cc1cn(-c2cc(NC(=O)c3ccc(CNc4cc([N+](=O)[O-])ccc4C)cc3)cc(C(F)(F)F)c2)cn1 [Compound 9, N-(3-(4-methyl-1H-imidazol-1-yl)-5-(trifluoromethyl)phenyl)-4-(((2-methyl-5-nitrophenyl)amino)methyl)benzamide] | 51 | 57 | > 100 | > 100 | > 100 | 113 to 115 |  |  |  |  |  |  |  |  |  |  |  |
| CCOC(=O)CCC(NC(=O)c1ccc(CNc2cc(-n3cnc(C)c3)cc(C(F)(F)F)c2)cc1)C(=O)OCC (stereo not drawn) [Compound 14, Diethyl(4-(((3-(4-methyl-1H-imidazol-1-yl)-5-(trifluoromethyl)phenyl)amino)methyl)benzoyl)glutamate] | 50 | 45 |  |  |  | 125 to 127 | 10.4 | 0 | 0 | 0 | 0 | high selectivity | 23 | 0 | 0 | 0 |  |
| CCOC(=O)CC[C@H](NC(=O)c1ccc(CNc2nccc(-c3cccnc3)n2)cc1)C(=O)OCC [Compound 23, Diethyl (4-(((4-(pyridin-3-yl)pyrimidin-2-yl)amino)methyl)benzoyl)glutamate] | 66 | 49 |  |  |  | 130 to 132 | 11.5 | 0 | 0 | 12 | 1 |  | 49 | 0 | 0 | 0 |  |
| Cc1cn(-c2cc(NC(=O)c3ccc(CN4CCN(C(=O)c5ccccc5F)CC4)cc3)cc(C(F)(F)F)c2)cn1 [Compound 28j, 4-{[4-(2-Fluorobenzoyl)piperazin-1-yl]methyl}-N-[3-(4-methyl-1H-imidazol-1-yl)-5-(trifluoromethyl)phenyl]benzamide] | 6.9 | 30.6 | 71 | > 100 |  | 106 to 109 | 6.44 | 0 | 0 | 0 | 0 | high selectivity | 50 | 0 | 8 | 2 |  |
| Cc1cn(-c2cc(NC(=O)c3ccc(CN4CCN(C(=O)c5cccc(F)c5)CC4)cc3)cc(C(F)(F)F)c2)cn1 [Compound 28k, 4-{[4-(3-Fluorobenzoyl)piperazin-1-yl]methyl}-N-[3-(4-methyl-1H-imidazol-1-yl)-5-(trifluoromethyl)phenyl]benzamide] | 3.6 | 38.5 |  |  |  | 90 to 93 | 3.14 | 0 | 0 | 43 | 0 |  | 33 | 23 | 0 | 2 | comparable to imatinib |
| Cc1cn(-c2cc(NC(=O)c3ccc(C)c(Nc4nccc(-c5cccnc5)n4)c3)cc(C(F)(F)F)c2)cn1 [Nilotinib, reference compound] | < 0.1 | 55 |  |  | 55 |  | < 0.1 |  |  |  |  |  |  |  |  |  |  |
| CNC(=O)c1cc(Oc2ccc(NC(=O)Nc3ccc(Cl)c(C(F)(F)F)c3)cc2)ccn1 [Sorafenib, reference compound] |  |  | 55 | 58 | 51 |  |  |  |  |  |  |  |  |  |  |  |  |
